Consider 13 molecules from patent US5474921A, “Expression and purification of phosphoinositide-specific phospholipase C-γ” (Merck & Co., Inc., priority 1993, dated 1995).

Series [1] deals with T1, PLCγ1 (Rattus norvegicus, UniProt P10686).
T1 construct: made in house; host or cells: E. coli BL21 (DE3)
T1 sequence (P10686 with tags, fused parts or gaps limits assumed): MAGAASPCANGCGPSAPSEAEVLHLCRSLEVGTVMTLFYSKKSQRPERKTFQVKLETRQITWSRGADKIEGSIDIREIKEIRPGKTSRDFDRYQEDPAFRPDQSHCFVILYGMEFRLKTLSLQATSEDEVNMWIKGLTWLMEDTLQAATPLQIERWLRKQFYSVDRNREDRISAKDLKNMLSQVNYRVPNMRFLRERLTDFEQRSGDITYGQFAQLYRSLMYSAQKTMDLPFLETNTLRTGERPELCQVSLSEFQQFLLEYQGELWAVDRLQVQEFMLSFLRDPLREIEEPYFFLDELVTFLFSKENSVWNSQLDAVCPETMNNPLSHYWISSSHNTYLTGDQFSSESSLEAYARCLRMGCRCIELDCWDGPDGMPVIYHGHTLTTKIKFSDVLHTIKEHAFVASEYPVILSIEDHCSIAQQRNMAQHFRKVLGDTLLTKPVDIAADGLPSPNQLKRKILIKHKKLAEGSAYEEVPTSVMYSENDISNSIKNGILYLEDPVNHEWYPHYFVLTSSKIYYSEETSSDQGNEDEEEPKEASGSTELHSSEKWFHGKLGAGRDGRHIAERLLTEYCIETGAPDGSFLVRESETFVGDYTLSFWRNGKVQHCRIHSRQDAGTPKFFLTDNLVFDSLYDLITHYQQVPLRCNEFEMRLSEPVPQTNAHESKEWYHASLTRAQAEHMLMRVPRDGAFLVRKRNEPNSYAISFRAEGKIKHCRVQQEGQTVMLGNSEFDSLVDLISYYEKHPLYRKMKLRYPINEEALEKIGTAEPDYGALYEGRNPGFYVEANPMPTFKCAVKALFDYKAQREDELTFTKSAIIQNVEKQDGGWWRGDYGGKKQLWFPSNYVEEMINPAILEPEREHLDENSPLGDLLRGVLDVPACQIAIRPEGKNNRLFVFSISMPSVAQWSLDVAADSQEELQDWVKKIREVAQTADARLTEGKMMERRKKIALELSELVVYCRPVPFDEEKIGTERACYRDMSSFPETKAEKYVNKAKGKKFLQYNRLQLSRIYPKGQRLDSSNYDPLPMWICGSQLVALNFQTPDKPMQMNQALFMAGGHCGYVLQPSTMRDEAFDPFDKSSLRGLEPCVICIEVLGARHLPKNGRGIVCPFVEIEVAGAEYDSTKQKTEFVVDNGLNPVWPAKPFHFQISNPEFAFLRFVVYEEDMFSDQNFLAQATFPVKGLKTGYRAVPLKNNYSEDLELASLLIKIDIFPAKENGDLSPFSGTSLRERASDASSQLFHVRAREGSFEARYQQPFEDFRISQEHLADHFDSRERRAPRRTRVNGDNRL
Nature of the series: Assay of inhibitory activity of compounds against PLCγ1 (hydrolysis of [3H]-phosphatidyl inositol by purified bacterially expressed PLCγ1). It counts as biochemical. The following applies: 30° C., pH 7.5, 0.1% deoxycholate, compound included prior to addition of enzyme. From the text:
Subcloning of the PLCγ1 Coding Sequence. Rat brain cDNA is synthesized using rat brain poly(A)RNA as template by literature protocol (Sambrook, J. et al., Molecular Cloning: A Laboratory Manual, Cold Spring Harbor Laboratory Press, Cold Spring Harbor, N.Y.). From the published cDNA sequence of rat brain PLCγ1 (Suh, P. -G., Ryu, S. H., Moon, K. H., Suh, H. W., & Rhee, S. G. (1988) Proc. Natl. Acad. Sci. USA 85, 5419-5423), PCR primers, one which contains a BamHI restriction site upstream of the sequence complementary to the 5' end of the PLCγ gene (primer 01 ), and the other one which contains a HindIII site downstream of the 3' end of the PLCγ gene (primer 04), were synthesized. Carrying out the PCR using these primers (01 and 04) with the above mentioned rat brain eDNA as template, a DNA fragment with the entire rat brain PLCγ1 coding sequence, flanked by a 5' BamHI site and a 3' HindIII site, is generated. This BarnHI-HindIII fragment containing the coding sequence of PLCγ1 was subcloned into pBSII(S/K)+, generating pPLCl. The rest of the manipulations were accomplished using PCR to generate the appropriate DNA fragment. The 5' end of the PLCγ1 gene was altered to include a new BarnHi site and a sequence that would eventually translationally couple the expression of PLCγ to the .phi.10 gene of the pT5T vector as described by Eisenberg, S. P., Evans, R. J., Arend, W. P., Verderber, E., Brewer, M. T., Hannum, C. H., & Thompson, R. C. (1990) Nature(London) 343,341-346.
Using the isolated mutant fragments from each of these PCRs together as template, the final PCR was carried out using primers 03-06 which yielded, after restriction enzyme digestion, a SphI and HindIll fragment which was used to replace the analogous fragment in pPLC2. The resulting plasmid, pPLC3, contained the coding sequence of the PLCγ1 gene on a BarnHI-HindlII fragment with both the sequence encoding the Glu-Glu-Phe tag at the 3' end as well as the changed AGG codons. […] (SEQ.ID.NO.: 3) Finally, the BarnHI-HindIII fragment from pPLC3 was transferred into the BamHI-HindIII site of pTST, generating pTST-PLC4. This construct was used to produce PLCγ1 (containing the Glu-Glu-Phe epitope tag at the C-terminus) translationally coupled to the expression of .phi.10 protein in the pT5T vector.
Expression and Purification of PLCγ1. To express PLCγ1 the plasmid pT5T-PLC4 was transformed into E. coli BL21 (DE3). The transformed cells were grown in LB media containing ampicillin (100 μg/ml) and tetracycline (12.5 μg/ml) at 20° C. until the optical density of the cultures at 550 nm was equal to 0.8. This transformed bacterial cell has been deposited with the ATCC and has been assigned the number ATCC 69421. Expression of PLCγ1 was then induced by addition of isopropyl β-D-thiogalactopyranoside (0.5 mM final concentration) to the cultures. After growing for another 6 hours the cells were harvested and PLCγ1 was purified as described below. PLCγ1 was isolated from E. coli by resuspending a cell pellet in standard buffer, 50 mM Tris-C1 pH 8.0, 2 mM MgCl2, 10 mM CaCl2, 1 mM EGTA, 5 mM DTT, 5 mM streptomycin sulfate, 1 mM PMSF, 2 μg/ml leupeptin, 2 μg/ml antipain, 10 μg/ml aprotinin (approximately 5 g wet packed cells/10 ml buffer). The resuspended cells were broken by sonication and the cell debris pelleted by centrifugation at 30,000×g at 4° C. for 30 minutes. The soluble fraction was applied at a flow rate of approximately 0.5 ml/min. to a 2 ml column of the monoclonal antibody YL 1/2(4 mg antibody/ml resin) coupled to cyanogen bromide activated Sepharose. The YL1/2 Sepharose column, which binds the epitope tag Glu-Glu-Phe had previously been equilibrated with standard buffer. After loading the protein onto the column, the column was washed with standard buffer (100 mls) PLCγ1 was eluted with 3×5ml 5 mM Asp-Phe dipeptide (Sigma) in standard buffer. The column was regenerated by washing with phosphate buffered saline (PBS)+2 M NaCl and then stored in PBS +0.02% NaN3 (wt./vol). […]

Series [2] has as its system phospholipase C. Particulars: background statement; cited from earlier work.
Series [3] has as its system platelets. The following applies: background statement; cited from earlier work.
Series [4] relates to macrophages. Particulars: background statement; cited from earlier work.
The nature of series [5]: Assay of purified PLCγ1 activity (hydrolysis of [3H]-phosphatidyl inositol). It counts as biochemical. Particulars: 30° C., 50 mM HEPES pH 7.5; bacterially expressed vs naturally derived enzyme in the same assay. From the text:
Reactions were never allowed to proceed to more than 10% completion based on the limiting substrate.

On to `O=P(O)(O)C(O)c1cccc(Oc2ccccc2Cl)c1` (stereo not drawn) [drawing 1: R3=Cl, R4=H, R5=H], for which half-maximal inhibition in series [1] (Table 1) (IC50) required 17 µM. This lies in the double-digit micromolar range.

Consider `O=P(O)(O)C(O)c1cccc(Oc2ccc(Cl)c(Cl)c2)c1` (stereo not drawn) [drawing 1: R3=H, R4=Cl, R5=Cl], for which inhibition in series [1] (Table 1) was half-maximal at 56 µM (IC50).

Molecule `O=P(O)(O)C(O)c1cccc(Oc2cccc(Cl)c2)c1` (stereo not drawn) [drawing 1: R3=H, R4=Cl, R5=H] registered a half-inhibitory concentration (IC50) in series [1] (Table 1) of 10 µM.

Take `Cc1ccc(Oc2cccc(C(O)P(=O)(O)O)c2)cc1` (stereo not drawn) [drawing 1: R3=H, R4=H, R5=CH3]: in series [1] (Table 1), the IC50 stood at 13 µM.

Molecule `O=P(O)(O)C(O)c1cccc(Oc2ccc(Cl)cc2)c1` (stereo not drawn) [drawing 1: R3=H, R4=H, R5=Cl] returned a half-inhibitory concentration (IC50) in series [1] (Table 1) of 36 µM.

The molecule `O=P(O)(O)C(O)c1cccc(Oc2ccccc2)c1` (stereo not drawn) [drawing 1: R3=H, R4=H, R5=H] showed an IC50 in series [1] (Table 1) of 190 µM.

In series [1] (Table 1), `COc1ccc(Oc2cccc(C(O)P(=O)(O)O)c2)cc1` (stereo not drawn) [drawing 1: R3=H, R4=H, R5=OCH3] showed an IC50 of 7 µM.

`O=P(O)(O)C(O)c1cccc(Oc2ccc(O)cc2)c1` (stereo not drawn) [drawing 1: R3=H, R4=H, R5=OH] registered an IC50 in series [1] (Table 1) of 3 µM.

`CCc1cccc(Oc2ccc(C(O)P(=O)(O)O)cc2)c1` (stereo not drawn) [drawing 2: R3=H, R4=CH2CH3, R5=H] came in with an IC50 in series [1] (Table 2) of 37 µM.

`O=P(O)(O)C(O)c1ccc(Oc2cccc(Cl)c2)cc1` (stereo not drawn) [drawing 2: R3=H, R4=Cl, R5=H] yielded an IC50 in series [1] (Table 2) of 5 µM. This IC50 is about 7.4-fold lower than that of the molecule before.

As for `COc1cccc(Oc2ccc(C(O)P(=O)(O)O)cc2)c1` (stereo not drawn) [drawing 2: R3=H, R4=OCH3, R5=H], in series [1] (Table 2), inhibition was half-maximal at 8 µM (IC50).

Consider `c1ccc2c(c1)Nc1ccccc1S2` [phenothiazine], for which the “inhibition of phospholipase C” value in series [2] is on record as “inhibited”. Moreover, in series [3], the “inhibition of stimulated release of prostaglandins from platelets” value is “inhibit”. Moreover, in series [4], the “inhibition of stimulated release of arachidonic acid from macrophages” value is reported as “inhibit”.

B1: bacterially expressed PLCγ1: rat brain PLCγ1 with C-terminal Glu-Glu-Phe epitope tag, expressed in E. coli BL21 (DE3) from plasmid pT5T-PLC4 (protein, UniProt P10686 2-1290, looked up)
1-phosphatidylinositol …: AGVGTPCANGCGPSAPSEAEVLHLCRSLEVGTVMTLFYSKKSQRPERKTFQVKLETRQITWSRGADKIEGSIDIREIKEIRPGKTSRDFDRYQEDPAFRPDQSHCFVILYGMEFRLKTLSLQATSEDEVNMWIKGLTWLMEDTLQAATPLQIERWLRKQFYSVDRNREDRISAKDLKNMLSQVNYRVPNMRFLRERLTDFEQRSGDITYGQFAQLYRSLMYSAQKTMDLPFLETNTLRTGERPELCQVSLSEFQQFLLEYQGELWAVDRLQVQEFMLSFLRDPLREIEEPYFFLDELVTFLFSKENSVWNSQLDAVCPETMNNPLSHYWISSSHNTYLTGDQFSSESSLEAYARCLRMGCRCIELDCWDGPDGMPVIYHGHTLTTKIKFSDVLHTIKEHAFVASEYPVILSIEDHCSIAQQRNMAQHFRKVLGDTLLTKPVDIAADGLPSPNQLKRKILIKHKKLAEGSAYEEVPTSVMYSENDISNSIKNGILYLEDPVNHEWYPHYFVLTSSKIYYSEETSSDQGNEDEEEPKEASGSTELHSSEKWFHGKLGAGRDGRHIAERLLTEYCIETGAPDGSFLVRESETFVGDYTLSFWRNGKVQHCRIHSRQDAGTPKFFLTDNLVFDSLYDLITHYQQVPLRCNEFEMRLSEPVPQTNAHESKEWYHASLTRAQAEHMLMRVPRDGAFLVRKRNEPNSYAISFRAEGKIKHCRVQQEGQTVMLGNSEFDSLVDLISYYEKHPLYRKMKLRYPINEEALEKIGTAEPDYGALYEGRNPGFYVEANPMPTFKCAVKALFDYKAQREDELTFTKSAIIQNVEKQDGGWWRGDYGGKKQLWFPSNYVEEMINPAILEPEREHLDENSPLGDLLRGVLDVPACQIAIRPEGKNNRLFVFSISMPSVAQWSLDVAADSQEELQDWVKKIREVAQTADARLTEGKMMERRKKIALELSELVVYCRPVPFDEEKIGTERACYRDMSSFPETKAEKYVNKAKGKKFLQYNRLQLSRIYPKGQRLDSSNYDPLPMWICGSQLVALNFQTPDKPMQMNQALFMAGGHCGYVLQPSTMRDEAFDPFDKSSLRGLEPCVICIEVLGARHLPKNGRGIVCPFVEIEVAGAEYDSTKQKTEFVVDNGLNPVWPAKPFHFQISNPEFAFLRFVVYEEDMFSDQNFLAQATFPVKGLKTGYRAVPLKNNYSEDLELASLLIKIDIFPAKENGDLSPFSGTSLRERASDASSQLFHVRAREGSFEARYQQPFEDFRISQEHLADHFDSRERRAPRRTRVNGDNRL
modifications: C-terminal Glu-Glu-Phe epitope tag
As for B1, the specific activity in series [5] was 13.8 µmol/min/mg.

What is called IC50 is the concentration at which inhibition is half-maximal. A low value points to higher potency.
